The values below come from ChEMBL document CHEMBL5465560, “Selectivity Literature for EUbOPEN Chemogenomic Library” (2024).

In series [1] the target is T1, Serine/threonine-protein kinase 17A (Homo sapiens) (UniProt Q9UEE5).
T1 sequence (whole entry): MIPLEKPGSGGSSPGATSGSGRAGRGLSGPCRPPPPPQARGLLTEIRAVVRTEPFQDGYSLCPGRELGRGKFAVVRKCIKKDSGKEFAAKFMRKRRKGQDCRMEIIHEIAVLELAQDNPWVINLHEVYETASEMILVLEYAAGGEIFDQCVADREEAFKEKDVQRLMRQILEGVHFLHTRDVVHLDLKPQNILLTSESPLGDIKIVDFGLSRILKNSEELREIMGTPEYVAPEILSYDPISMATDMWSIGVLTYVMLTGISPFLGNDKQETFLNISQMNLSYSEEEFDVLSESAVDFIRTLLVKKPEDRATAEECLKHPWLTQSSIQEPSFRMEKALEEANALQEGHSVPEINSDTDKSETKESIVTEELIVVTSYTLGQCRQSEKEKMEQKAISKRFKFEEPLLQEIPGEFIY
Kind of series: Selectivity interaction (Kinase panel (DSF assay)) EUB0001489b STK17A. For orientation: Differential scanning fluorimetry follows unfolding on heating by fluorescence.

For series [2], the target named is Receptor-interacting serine/threonine-protein kinase 2 (Homo sapiens, UniProt O43353). The experiment in a line: Selectivity interaction (KinomeScan (DiscoverX)) EUB0001619a RIPK2. Conditions: at 1 µM.
Sequence of Receptor-interacting serine/threonine-protein kinase 2 (O43353 whole entry): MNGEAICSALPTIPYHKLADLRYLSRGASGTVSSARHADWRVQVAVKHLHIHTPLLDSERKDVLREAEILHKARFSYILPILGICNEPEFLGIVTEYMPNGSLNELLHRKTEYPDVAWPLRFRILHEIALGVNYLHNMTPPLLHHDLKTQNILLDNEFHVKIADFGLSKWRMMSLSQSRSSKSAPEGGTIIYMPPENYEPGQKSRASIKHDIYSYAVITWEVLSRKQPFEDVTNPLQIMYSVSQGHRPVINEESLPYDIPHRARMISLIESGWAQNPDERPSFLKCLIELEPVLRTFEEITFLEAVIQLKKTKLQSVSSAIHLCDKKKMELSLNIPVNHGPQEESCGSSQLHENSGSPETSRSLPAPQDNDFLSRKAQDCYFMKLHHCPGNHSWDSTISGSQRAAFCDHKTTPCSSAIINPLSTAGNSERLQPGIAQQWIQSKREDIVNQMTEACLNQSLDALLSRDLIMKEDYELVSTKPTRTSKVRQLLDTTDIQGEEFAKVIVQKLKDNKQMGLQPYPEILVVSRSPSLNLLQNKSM
The target in series [3] is Dual specificity protein kinase CLK3 (Homo sapiens, UniProt P49761). Kind of series: Selectivity interaction (Kinase panel (Invitrogen)) EUB0000639a CLK3. To be noted: at 200 nM.
Sequence of Dual specificity protein kinase CLK3 (P49761 whole entry, looked up): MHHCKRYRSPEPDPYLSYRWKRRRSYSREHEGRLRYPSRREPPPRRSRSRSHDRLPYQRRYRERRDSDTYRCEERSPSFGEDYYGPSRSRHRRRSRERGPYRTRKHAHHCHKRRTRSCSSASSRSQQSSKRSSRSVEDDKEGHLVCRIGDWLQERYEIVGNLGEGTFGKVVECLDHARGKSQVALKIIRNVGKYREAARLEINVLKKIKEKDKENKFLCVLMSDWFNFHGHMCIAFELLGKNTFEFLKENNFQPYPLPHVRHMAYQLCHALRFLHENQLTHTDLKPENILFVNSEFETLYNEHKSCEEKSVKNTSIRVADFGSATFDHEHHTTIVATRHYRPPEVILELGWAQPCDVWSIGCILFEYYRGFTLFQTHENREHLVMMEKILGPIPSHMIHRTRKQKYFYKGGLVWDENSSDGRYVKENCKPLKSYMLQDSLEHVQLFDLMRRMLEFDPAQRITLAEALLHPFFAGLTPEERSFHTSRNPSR
Series [4] has as its target Serine/threonine-protein kinase Nek7 (Homo sapiens) (UniProt Q8TDX7). The experiment in a line: Selectivity interaction (ActivX KiNativ screen (kinase selectivity in THP-1 cell lysates)) EUB0000639a NEK7. Type of series: subcellular. To be noted: lysate, at 0.2 µM.
The target in series [5] is Proto-oncogene tyrosine-protein kinase Src (Homo sapiens, UniProt P12931). The experiment in a line: Selectivity interaction (ProQinase) EUB0000171b SRC.
Sequence of Proto-oncogene tyrosine-protein kinase Src (P12931 2-536 limits assumed): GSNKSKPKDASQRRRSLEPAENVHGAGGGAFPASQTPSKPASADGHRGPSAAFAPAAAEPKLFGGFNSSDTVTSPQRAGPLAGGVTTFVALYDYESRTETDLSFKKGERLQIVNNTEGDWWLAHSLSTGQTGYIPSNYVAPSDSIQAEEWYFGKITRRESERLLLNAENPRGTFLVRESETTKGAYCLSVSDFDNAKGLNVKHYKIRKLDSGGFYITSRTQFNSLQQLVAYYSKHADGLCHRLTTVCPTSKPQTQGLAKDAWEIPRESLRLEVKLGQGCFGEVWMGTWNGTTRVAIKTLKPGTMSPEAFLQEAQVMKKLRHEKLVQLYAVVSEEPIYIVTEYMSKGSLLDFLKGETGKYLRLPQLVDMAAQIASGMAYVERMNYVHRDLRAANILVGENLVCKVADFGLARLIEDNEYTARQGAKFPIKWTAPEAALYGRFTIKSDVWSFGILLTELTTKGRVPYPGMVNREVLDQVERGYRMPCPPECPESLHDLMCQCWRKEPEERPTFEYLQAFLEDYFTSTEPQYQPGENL
For series [6], the target named is Mitogen-activated protein kinase kinase kinase 11 (Homo sapiens) (UniProt Q16584). The experiment in a line: Selectivity interaction (Ambit KINOMEscan and KiNATiv profiling in Jurkat cells) EUB0000090b MAP3K11. To be noted: at 1 µM. It is filed as cell-based.
Sequence of Mitogen-activated protein kinase kinase kinase 11 (Homo sapiens) (Q16584 whole entry, looked up): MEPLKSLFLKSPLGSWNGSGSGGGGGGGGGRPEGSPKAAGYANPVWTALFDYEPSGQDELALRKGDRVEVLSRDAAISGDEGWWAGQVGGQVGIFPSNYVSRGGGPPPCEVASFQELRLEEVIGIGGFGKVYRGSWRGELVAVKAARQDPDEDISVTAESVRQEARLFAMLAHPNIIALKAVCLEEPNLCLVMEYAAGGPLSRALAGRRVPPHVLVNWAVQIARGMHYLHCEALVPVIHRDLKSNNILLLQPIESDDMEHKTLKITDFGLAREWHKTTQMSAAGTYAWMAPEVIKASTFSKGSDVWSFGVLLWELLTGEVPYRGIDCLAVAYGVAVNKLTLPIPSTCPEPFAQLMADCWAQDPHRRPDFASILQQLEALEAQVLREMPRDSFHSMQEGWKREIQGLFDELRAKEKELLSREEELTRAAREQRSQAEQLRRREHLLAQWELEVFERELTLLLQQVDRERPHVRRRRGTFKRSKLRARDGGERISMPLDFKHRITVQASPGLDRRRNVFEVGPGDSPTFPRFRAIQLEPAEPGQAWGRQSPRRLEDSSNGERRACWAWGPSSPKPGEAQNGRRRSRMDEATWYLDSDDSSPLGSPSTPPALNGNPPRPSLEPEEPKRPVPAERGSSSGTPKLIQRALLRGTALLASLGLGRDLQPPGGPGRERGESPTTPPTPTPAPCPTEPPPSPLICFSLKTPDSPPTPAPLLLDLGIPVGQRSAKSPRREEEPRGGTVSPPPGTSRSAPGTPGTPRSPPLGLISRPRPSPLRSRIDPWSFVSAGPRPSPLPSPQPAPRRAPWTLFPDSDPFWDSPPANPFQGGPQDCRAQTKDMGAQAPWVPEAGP
For series [7], the target named is Mitogen-activated protein kinase kinase kinase 14 (Homo sapiens) (UniProt Q99558). Kind of series: Selectivity interaction (Ambit KINOMEscan and KiNATiv profiling in Jurkat cells) EUB0000090b MAP3K14. Type of series: cell-based. Conditions: at 1 µM.
Sequence of Mitogen-activated protein kinase kinase kinase 14 (Homo sapiens) (Q99558 whole entry, looked up): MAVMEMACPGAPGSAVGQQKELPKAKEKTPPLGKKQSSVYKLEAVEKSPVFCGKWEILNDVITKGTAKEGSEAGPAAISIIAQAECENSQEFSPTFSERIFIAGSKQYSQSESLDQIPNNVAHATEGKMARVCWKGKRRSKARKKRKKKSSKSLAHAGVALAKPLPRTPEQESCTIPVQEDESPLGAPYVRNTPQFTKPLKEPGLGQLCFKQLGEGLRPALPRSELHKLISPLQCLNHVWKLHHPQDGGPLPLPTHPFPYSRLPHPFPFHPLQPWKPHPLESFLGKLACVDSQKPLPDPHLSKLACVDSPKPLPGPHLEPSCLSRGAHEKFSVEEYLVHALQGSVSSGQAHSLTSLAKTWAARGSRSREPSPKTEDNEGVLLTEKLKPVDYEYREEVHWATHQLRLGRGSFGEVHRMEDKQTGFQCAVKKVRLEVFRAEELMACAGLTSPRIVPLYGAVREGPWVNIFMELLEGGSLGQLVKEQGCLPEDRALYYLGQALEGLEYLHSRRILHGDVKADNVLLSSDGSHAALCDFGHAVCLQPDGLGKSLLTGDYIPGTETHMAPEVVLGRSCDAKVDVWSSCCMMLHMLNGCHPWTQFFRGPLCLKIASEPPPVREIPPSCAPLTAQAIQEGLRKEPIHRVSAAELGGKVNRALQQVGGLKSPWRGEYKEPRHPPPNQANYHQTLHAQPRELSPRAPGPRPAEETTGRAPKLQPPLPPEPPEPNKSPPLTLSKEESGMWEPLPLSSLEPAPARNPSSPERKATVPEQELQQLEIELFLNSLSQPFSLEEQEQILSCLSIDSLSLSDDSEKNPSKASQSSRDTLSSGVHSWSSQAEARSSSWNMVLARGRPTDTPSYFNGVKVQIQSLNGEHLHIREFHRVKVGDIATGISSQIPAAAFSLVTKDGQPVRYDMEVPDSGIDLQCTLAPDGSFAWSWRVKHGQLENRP
Series [8] concerns the target T2, Serine/threonine-protein kinase TBK1 (Homo sapiens) (UniProt Q9UHD2).
T2 sequence (whole entry): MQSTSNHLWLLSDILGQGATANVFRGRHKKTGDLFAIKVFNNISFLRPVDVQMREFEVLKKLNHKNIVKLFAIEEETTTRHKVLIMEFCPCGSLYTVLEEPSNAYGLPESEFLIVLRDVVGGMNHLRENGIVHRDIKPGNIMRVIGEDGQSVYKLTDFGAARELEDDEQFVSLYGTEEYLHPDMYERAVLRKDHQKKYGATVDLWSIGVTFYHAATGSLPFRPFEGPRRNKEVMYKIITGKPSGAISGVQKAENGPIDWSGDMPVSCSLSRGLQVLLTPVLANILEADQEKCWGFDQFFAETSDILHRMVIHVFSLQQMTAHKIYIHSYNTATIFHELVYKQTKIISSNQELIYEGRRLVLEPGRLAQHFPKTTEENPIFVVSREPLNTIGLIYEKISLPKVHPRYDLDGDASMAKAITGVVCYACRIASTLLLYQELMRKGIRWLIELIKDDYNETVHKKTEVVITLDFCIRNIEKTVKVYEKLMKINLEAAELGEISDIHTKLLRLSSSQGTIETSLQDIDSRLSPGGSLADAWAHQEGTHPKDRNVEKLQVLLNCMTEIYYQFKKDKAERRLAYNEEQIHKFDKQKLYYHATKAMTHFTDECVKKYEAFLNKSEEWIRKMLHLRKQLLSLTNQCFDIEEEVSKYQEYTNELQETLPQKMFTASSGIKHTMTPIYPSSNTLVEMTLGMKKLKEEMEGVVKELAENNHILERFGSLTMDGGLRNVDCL
The experiment in a line: Selectivity interaction (KinomeScan (DiscoverX)) EUB0001049a TBK1. Conditions: at 1 µM.

Series [9] deals with Amine oxidase [flavin-containing] A (Homo sapiens, UniProt P21397). Kind of series: Selectivity interaction (Panel of non-epigenetic targets (kinases, GPCRs, ion channels, and transporters, Eurofins) ) EUB0000271b MAOA. To be noted: at 1 µM.
Sequence of Amine oxidase [flavin-containing] A (P21397 whole entry): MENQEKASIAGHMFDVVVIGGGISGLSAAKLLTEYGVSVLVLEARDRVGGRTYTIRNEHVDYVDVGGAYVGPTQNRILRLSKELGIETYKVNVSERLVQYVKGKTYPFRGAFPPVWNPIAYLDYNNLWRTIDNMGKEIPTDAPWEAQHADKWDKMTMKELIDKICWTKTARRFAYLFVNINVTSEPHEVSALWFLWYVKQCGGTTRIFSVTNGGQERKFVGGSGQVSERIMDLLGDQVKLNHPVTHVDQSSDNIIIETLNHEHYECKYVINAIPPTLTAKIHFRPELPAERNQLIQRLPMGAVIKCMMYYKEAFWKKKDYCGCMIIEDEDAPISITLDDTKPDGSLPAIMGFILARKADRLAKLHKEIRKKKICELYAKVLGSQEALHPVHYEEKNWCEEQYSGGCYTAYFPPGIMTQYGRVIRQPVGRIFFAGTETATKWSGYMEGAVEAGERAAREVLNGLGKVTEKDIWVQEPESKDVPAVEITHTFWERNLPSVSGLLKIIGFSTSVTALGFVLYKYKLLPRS
The target in series [10] is T3, Serine/threonine-protein kinase tousled-like 1 (Homo sapiens) (UniProt Q9UKI8).
T3 sequence (whole entry): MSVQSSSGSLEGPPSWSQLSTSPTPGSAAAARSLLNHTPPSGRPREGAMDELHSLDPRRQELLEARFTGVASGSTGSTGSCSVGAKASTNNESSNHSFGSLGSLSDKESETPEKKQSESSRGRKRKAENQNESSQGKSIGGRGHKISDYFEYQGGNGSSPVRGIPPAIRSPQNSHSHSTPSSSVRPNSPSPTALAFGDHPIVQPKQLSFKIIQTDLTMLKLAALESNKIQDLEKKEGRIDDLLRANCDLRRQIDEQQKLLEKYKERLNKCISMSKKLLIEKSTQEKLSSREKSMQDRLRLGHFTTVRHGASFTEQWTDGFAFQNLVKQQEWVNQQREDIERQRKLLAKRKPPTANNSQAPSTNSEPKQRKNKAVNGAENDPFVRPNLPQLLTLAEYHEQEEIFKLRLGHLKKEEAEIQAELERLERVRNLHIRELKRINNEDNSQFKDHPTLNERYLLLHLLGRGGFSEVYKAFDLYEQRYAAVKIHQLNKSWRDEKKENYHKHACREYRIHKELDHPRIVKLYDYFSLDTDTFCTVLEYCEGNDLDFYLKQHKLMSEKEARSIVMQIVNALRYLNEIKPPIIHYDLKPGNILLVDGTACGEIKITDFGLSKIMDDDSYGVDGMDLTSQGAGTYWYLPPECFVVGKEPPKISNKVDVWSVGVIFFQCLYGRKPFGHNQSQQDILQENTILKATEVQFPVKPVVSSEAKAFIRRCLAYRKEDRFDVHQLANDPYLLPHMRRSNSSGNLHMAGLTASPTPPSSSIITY
The experiment in a line: Selectivity interaction (Kinase panel (KiNativ target engagement assay in Jurkat cells)) EUB0001635a TLK1. Type of series: cell-based. Conditions: at 1 µM.

Molecules are shown by their SMILES.

Sequence of Serine/threonine-protein kinase Nek7 (Homo sapiens) (Q8TDX7 whole entry, looked up): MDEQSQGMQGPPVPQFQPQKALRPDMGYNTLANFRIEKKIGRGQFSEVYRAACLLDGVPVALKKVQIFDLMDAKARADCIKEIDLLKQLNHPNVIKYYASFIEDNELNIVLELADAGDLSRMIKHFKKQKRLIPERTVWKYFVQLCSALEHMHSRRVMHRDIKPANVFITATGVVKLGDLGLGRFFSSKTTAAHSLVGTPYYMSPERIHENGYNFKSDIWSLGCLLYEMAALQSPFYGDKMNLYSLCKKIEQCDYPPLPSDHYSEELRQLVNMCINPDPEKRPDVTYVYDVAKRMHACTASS

In turn, `CN1CCN(C(=O)c2ccc3cc2OCCOCCNc2ccn4ncc-3c4n2)CC1` had a dTM in series [1] of 1.5 K.

Compound `N#Cc1cccc(-c2c[nH]c3ncnc(N4CCOCC4)c23)c1` registered a % of control in [2] of 84%.

Consider `CC[C@@H]1[C@H](F)C(=O)N[C@@H]1COc1nccc2cc(C(N)=O)c(OC)cc12` [ZIMLOVISERTIB], for which the % of inhibition in series [3] is 8.76%; in series [4] it was -2.2%.

Turning to `C=CC(=O)Nc1cccc(C(=O)Nc2ccc(Nc3cc(-c4[nH]c(SC)nc4C)ccn3)cc2)c1`, the % of control was 98% in series [5] (at 1 µM) and 86% in series [5] (at 5 µM).

On to `CN(C)C/C=C/C(=O)Nc1ccc(C(=O)N2CCCC(Nc3ncc(Cl)c(-c4c[nH]c5ccccc45)n3)C2)cc1` (configuration not stated), for which the values for the % of control in [6] and in series [7] were 84% and 100%, respectively.

Consider `COc1cc(Nc2nc(C)cc(-c3cnn4nc(OC)ccc34)n2)cc(C(F)(F)F)c1`, for which the % of control in [8] turned out to be 80%.

As to `Cc1cc(C)cc([C@@H]2c3cc(C)ccc3NC(=O)CN2C(=O)c2ccc(Br)s2)c1`, the “% of inhibition” value in [9] is reported as 12%.

As to `C=CC(=O)Nc1ccc(C(=O)Nc2[nH]nc3c2CN(C(=O)N[C@H](CN(C)C)c2ccccc2)C3(C)C)cc1`, the % of engagement in [10] (Selectivity number of off-targets 0.0, Selectivity number of targets 233.0, Source Knowledge https://www.sciencedirect.com/science/article/pii/S2451945619300674?via%3Dihub) was 12.6%; in series [10] it was 13.2%.
